Literature values as cited in patent US9060937B2, “Pharmaceutical compositions” (priority 2006, dated 2015).

Conditions: in water

CCCCC1=NC2(CCCC2)C(=O)N1Cc1ccc(-c2ccccc2-c2nnn[nH]2)cc1 [irbesartan, Irbesartan]
solubility: < 0.1 µg/mL
